Measurements from patent US20020137929A1, “1 - (3-heterocyclylphenyl) isothiourea, -isourea, -guanidine and -amidine herbicidal agents” (Intellectual Property Department, BASF Aktiengesellschaft, priority 1998, published 2002).

Key:
[1] = system: IPOHE (Morningglory, Ivyleaf); test: Preemergence herbicidal evaluation; type: in vivo, Ipomoea hederacea; details: preemergence, rated 4-5 weeks after treatment, 0-9 scale
Summary of the method: (§1)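 Scores use a 0–9 visual scale covering stand, vigor, malformation, size and chlorosis relative to controls, rated four to five weeks after treatment. Before emergence, soil-planted seeds were sprayed with compound in aqueous acetone at roughly 0.0156–0.500 kg/ha and held in the greenhouse.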

[2] = system: ZEAMX (Corn, Field); test: Postemergence herbicidal evaluation; type: in vivo, Zea mays; details: postemergence
Summary of the method: (§2)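 Each compound, dispersed in an acetone/water mix (50/50) carrying 0.5% TWEEN 20, is nozzle-sprayed at 40 psi on approximately two-week-old seedlings at about 0.0156–0.500 kg/ha. Plants are assessed 4–5 weeks afterward on a 0–9 scale relative to control; duplicate tests are averaged.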

[3] = system: CASOB (Sicklepod); test: Preemergence herbicidal evaluation; type: in vivo, Cassia obtusifolia; details: preemergence, rated 4-5 weeks after treatment, 0-9 scale
Summary of the method: as §1

[4] = system: SETVI (Foxtail, Green); test: Postemergence herbicidal evaluation; type: in vivo, Setaria viridis; details: postemergence
Summary of the method: as §2

[5] = system: ECHORC (Watergrass (Calif.)); test: Postemergence weed control under flooded paddy conditions; type: in vivo, Echinochloa oryzoides; details: postemergence weeds, rated 3 to 4 weeks after treatment
Summary of the method: (§3)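 Injury ratings (0–9 scale covering stand, vigor, malformation, size, chlorosis and overall appearance versus control) were made three to four weeks after treatment. Test material, about 0.0313 to 0.500 kg/ha a.i. in 50/50 v/v aqueous/acetone, was added to flood water 1.5 to 3 cm deep over 3 to 5 cm weeds and 1.5 to 2.5 leaf rice.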

[6] = system: CYPIR (Rice Flatsedge); test: as above; type: in vivo, Cyperus iria; details: postemergence weeds, rated 3 to 4 weeks after treatment
Summary of the method: as §3

[7] = system: ECHCG (Barnyardgrass); test: Preemergence herbicidal evaluation; type: in vivo, Echinochloa crus-galli; details: preemergence, rated 4-5 weeks after treatment, 0-9 scale
Summary of the method: as §1

[8] = system: GLXMAW (Soybean, Williams); test: Postemergence herbicidal evaluation; type: in vivo, Glycine max, (L.) Merr. cv Williams; details: postemergence
Summary of the method: as §2

[9] = system: ABUTH (Velvetleaf); test: Postemergence herbicidal evaluation; type: in vivo, Abutilon theophrasti; details: postemergence
Summary of the method: as §2

[10] = system: IPOHE (Morningglory, Ivyleaf); test: Postemergence herbicidal evaluation; type: in vivo, Ipomoea hederacea; details: postemergence
Summary of the method: as §2

[11] = system: ABUTH (Velvetleaf); test: Preemergence herbicidal evaluation; type: in vivo, Abutilon theophrasti; details: preemergence, rated 4-5 weeks after treatment, 0-9 scale
Summary of the method: as §1

[12] = system: ECHORC (Watergrass (Calif.)); test: Preemergence weed control under flooded paddy conditions; type: in vivo, Echinochloa oryzoides; details: rated 3-4 weeks after treatment
Summary of the method: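 Visual injury scored 0-9 against control three to four weeks post-treatment, greenhouse-grown. Application: acetone/water (50/50) solutions dosed directly into flood water (1.5-3 cm over silt loam, planted top 0.5 cm), roughly 0.0313 to 0.500 kg/ha active ingredient.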

[13] = system: AMBEL (Ragweed, Common); test: Preemergence herbicidal evaluation; type: in vivo, Ambrosia artemisifolia; details: preemergence, rated 4-5 weeks after treatment, 0-9 scale
Summary of the method: as §1

[14] = system: CYPSE (Flatsedge); test: Preemergence weed control under flooded paddy conditions; type: in vivo, Cyperus serotinus; details: rated 3-4 weeks after treatment
Summary of the method: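 Values are visual 0-9 scores against a control for a preemergence application into paddy flood water at about 0.0313 to 0.500 kg/ha. Greenhouse duration was three to four weeks.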

CCS(=O)(=O)NC(=O)CC1SC(=Nc2cc(-n3c(=O)cc(C(F)(F)F)n(C)c3=O)c(F)cc2Cl)N(C)C1=O (stereo not drawn) [Compound 105, 2-{{2-Chloro-5-[3,6-dihydro-3-methyl-2,6-dioxo-4-(trifluoromethyl)-1(2H)-pyrimidinyl]-4-fluorophenyl}imino}-N-(ethylsulfonyl)-3-methyl-4-oxo-5-thiazolidineacetamide]
IPOHE rating ([1]; 0.1250 kg/ha): 0.0 | IPOHE rating ([1]; 0.2500 kg/ha): 3.0 | IPOHE rating ([1]; 0.5000 kg/ha): 4.0 | herbicidal rating ZEAMX ([2]; rate 0.0156 kg/ha): 3.5 | herbicidal rating ZEAMX ([2]; rate 0.0313 kg/ha): 5.0 | herbicidal rating ZEAMX ([2]; rate 0.0625 kg/ha): 6.0 | herbicidal rating ZEAMX ([2]; rate 0.1250 kg/ha): 7.0 | CASOB rating ([3]; 0.1250 kg/ha): 0.0 | CASOB rating ([3]; 0.2500 kg/ha): 0.0 | CASOB rating ([3]; 0.5000 kg/ha): 0.0 | herbicidal rating SETVI ([4]; rate 0.0156 kg/ha): 0.0 | herbicidal rating SETVI ([4]; rate 0.0313 kg/ha): 0.0 | herbicidal rating SETVI ([4]; rate 0.0625 kg/ha): 2.0 | herbicidal rating SETVI ([4]; rate 0.1250 kg/ha): 5.0 | Herbicidal rating ECHORC ([5]; Rate 0.0313 kg/ha): 0.0 | Herbicidal rating ECHORC ([5]; Rate 0.0625 kg/ha): 3.0 | Herbicidal rating ECHORC ([5]; Rate 0.1250 kg/ha): 4.0 | Herbicidal rating ECHORC ([5]; Rate 0.2500 kg/ha): 5.0 | Herbicidal rating CYPIR ([6]; Rate 0.0313 kg/ha): 5.0 | Herbicidal rating CYPIR ([6]; Rate 0.0625 kg/ha): 7.0 | Herbicidal rating CYPIR ([6]; Rate 0.1250 kg/ha): 7.0 | Herbicidal rating CYPIR ([6]; Rate 0.2500 kg/ha): 9.0 | ECHCG rating ([7]; 0.1250 kg/ha): 0.0 | ECHCG rating ([7]; 0.2500 kg/ha): 0.0 | ECHCG rating ([7]; 0.5000 kg/ha): 1.0 | herbicidal rating GLXMAW ([8]; rate 0.0156 kg/ha): 3.0 | herbicidal rating GLXMAW ([8]; rate 0.0313 kg/ha): 4.5 | herbicidal rating GLXMAW ([8]; rate 0.0625 kg/ha): 6.5 | herbicidal rating GLXMAW ([8]; rate 0.1250 kg/ha): 7.5 | herbicidal rating ABUTH ([9]; rate 0.0156 kg/ha): 4.0 | herbicidal rating ABUTH ([9]; rate 0.0313 kg/ha): 4.0 | herbicidal rating ABUTH ([9]; rate 0.0625 kg/ha): 4.0 | herbicidal rating ABUTH ([9]; rate 0.1250 kg/ha): 9.0 | herbicidal rating IPOHE ([10]; rate 0.0156 kg/ha): 5.0 | herbicidal rating IPOHE ([10]; rate 0.0313 kg/ha): 9.0 | herbicidal rating IPOHE ([10]; rate 0.0625 kg/ha): 9.0 | herbicidal rating IPOHE ([10]; rate 0.1250 kg/ha): 9.0 | ABUTH rating ([11]; 0.1250 kg/ha): 7.0 | ABUTH rating ([11]; 0.2500 kg/ha): 9.0 | ABUTH rating ([11]; 0.5000 kg/ha): 9.0 | ECHORC herbicidal effect rating ([12]; 0.0313 kg/ha): 0.0 | ECHORC herbicidal effect rating ([12]; 0.0625 kg/ha): 3.0 | ECHORC herbicidal effect rating ([12]; 0.1250 kg/ha): 4.0 | ECHORC herbicidal effect rating ([12]; 0.2500 kg/ha): 5.0 | AMBEL rating ([13]; 0.1250 kg/ha): 1.0 | AMBEL rating ([13]; 0.2500 kg/ha): 3.0 | AMBEL rating ([13]; 0.5000 kg/ha): 4.0 | CYPSE herbicidal effect rating ([14]; 0.0313 kg/ha): 2.0 | CYPSE herbicidal effect rating ([14]; 0.0625 kg/ha): 5.0 | CYPSE herbicidal effect rating ([14]; 0.1250 kg/ha): 7.0 | CYPSE herbicidal effect rating ([14]; 0.2500 kg/ha): 9.0
